Values quoted from earlier work as cited in patent US20120016347A1, “Seroma Control for Surgical Patients” (priority 2010, published 2012).

System: pleural effusions
Details: Patz (Chest, 1998)

Compound | Success rate in completely or partially controlling pleural effusions [%]
bleomycin | 72
C[C@H]1c2cccc(O)c2C(O)=C2C(=O)[C@]3(O)C(O)=C(C(N)=O)C(=O)[C@@H](N(C)C)[C@@H]3[C@@H](O)[C@@H]21 [doxyclycline, doxycycline] | 79
